Drawing on patent US20020064511A1, “Water-soluble polymers for the reduction of dietary phosphate or oxalate absorption” (priority 1996, published 2002), this text covers phosphorus removed for one compound.

The assay can be described thus: Complexation of phosphate in NaH2PO4 solution, Centricon 30 filtrate phosphorus by ICP. In kind it is binding.

Experimental: In each of four tubes, 0.54 mL of this solution (0.19 mmol of monomer units) were mixed with 10 mL of 0.0207 M NaH2PO4 and appropriate amounts of HCl and NaOH to make solutions of pH 3, pH 4.5, pH 6, and pH 7.5. Tubes with the same pH were also prepared with 10 mL of 0.0207 M NaH2PO4and 0.50 mL of 1.5 M CaCO, (0.749 mmol). Control tubes were also prepared with the sodium phosphate solution and the adjustment of pH. All tubes were diluted to 12 mL with water. The tubes were agitated for one hour. The solutions were then placed in separate Centricon™ 30 molecular weight cutoff tubes and centrifuged for 30 minutes. The filtrate collected was analyzed for phosphorus by inductively coupled plasma spectroscopy.
In each of four tubes, 0.67 mL of this solution (0.18 mmol of monomer units) were mixed with 10 mL of 0.0207 M NaH2PO4 and appropriate amounts of HCl and NaOH to make solutions of pH 3, pH 4.5, pH 6, and pH 7.5. Tubes with the same pH were also prepared with 10 mL of 0.0207 M NaH2PO4 and 0.50 mL of 1.5 M CaCO3 (0.749 mmol). Control tubes were also prepared with the sodium phosphate solution and the adjustment of pH. All tubes were diluted to 12 mL with water. The tubes were agitated for one hour. The solutions were then placed in separate Centricon™ 30 molecular weight cutoff tubes and centrifuged for 30 minutes. The filtrate collected was analyzed for phosphorus by inductively coupled plasma spectroscopy.

In the case of `O=C([O-])[O-].[Ca+2]` [calcium carbonate], the phosphorus removed runs as follows: (pH 3, 10 mL 0.0207 M NaH2PO4, one hour) 16%; (pH 4.5, 10 mL 0.0207 M NaH2PO4, one hour) 13%; (pH 6, 10 mL 0.0207 M NaH2PO4, one hour) 9%; (pH 7.5, 10 mL 0.0207 M NaH2PO4, one hour) 7%.
